Legend:
Type in all cases: functional
Conditions in all cases: read-out: GI
[1] = test system: A498; test: Cytotoxicity against human A498 cells assessed as growth inhibition at 10 uM after 48 hrs by sulforhodamine B assay
[2] = test system: CCRF-CEM; test: Cytotoxicity against human CCRF-CEM cells assessed as growth inhibition at 10 uM after 48 hrs by sulforhodamine B assay
[3] = test system: SF-295; test: Cytotoxicity against human SF-295 cells assessed as growth inhibition at 10 uM after 48 hrs by sulforhodamine B assay
[4] = test system: HOP-62; test: Cytotoxicity against human HOP-62 cells assessed as growth inhibition at 10 uM after 48 hrs by sulforhodamine B assay
[5] = test system: HCT-116; test: Cytotoxicity against human HCT-116 cells assessed as growth inhibition at 10 uM after 48 hrs by sulforhodamine B assay
[6] = test system: CAKI-1; test: Cytotoxicity against human CAKI-1 cells assessed as growth inhibition at 10 uM after 48 hrs by sulforhodamine B assay
[7] = test system: RXF 393; test: Cytotoxicity against human RXF 393 cells assessed as growth inhibition at 10 uM after 48 hrs by sulforhodamine B assay
[8] = test system: HOP-92; test: Cytotoxicity against human HOP-92 cells assessed as growth inhibition at 10 uM after 48 hrs by sulforhodamine B assay
[9] = test system: UACC-62; test: Cytotoxicity against human UACC-62 cells assessed as growth inhibition at 10 uM after 48 hrs by sulforhodamine B assay
[10] = test system: 786-0; test: Cytotoxicity against human 786-0 cells assessed as growth inhibition at 10 uM after 48 hrs by sulforhodamine B assay
[11] = Cytotoxicity against human Hs 578T cells assessed as growth inhibition at 10 uM after 48 hrs by sulforhodamine B assay
[12] = test system: SF-539; test: Cytotoxicity against human SF-539 cells assessed as growth inhibition at 10 uM after 48 hrs by sulforhodamine B assay
[13] = test system: U-251; test: Cytotoxicity against human U-251 cells assessed as growth inhibition at 10 uM after 48 hrs by sulforhodamine B assay
[14] = test system: ACHN; test: Cytotoxicity against human ACHN cells assessed as growth inhibition at 10 uM after 48 hrs by sulforhodamine B assay
[15] = test system: SNB-19; test: Cytotoxicity against human SNB-19 cells assessed as growth inhibition at 10 uM after 48 hrs by sulforhodamine B assay
[16] = test system: SK-OV-3; test: Cytotoxicity against human SK-OV-3 cells assessed as growth inhibition at 10 uM after 48 hrs by sulforhodamine B assay
[17] = test system: MCF7; test: Cytotoxicity against human MCF7 cells assessed as growth inhibition at 10 uM after 48 hrs by sulforhodamine B assay
[18] = test system: NCI-H522; test: Cytotoxicity against human NCI-H522 cells assessed as growth inhibition at 10 uM after 48 hrs by sulforhodamine B assay
[19] = test system: SF-268; test: Cytotoxicity against human SF-268 cells assessed as growth inhibition at 10 uM after 48 hrs by sulforhodamine B assay
[20] = test system: SNB-75; test: Cytotoxicity against human SNB-75 cells assessed as growth inhibition at 10 uM after 48 hrs by sulforhodamine B assay
[21] = test system: SK-MEL-2; test: Cytotoxicity against human SK-MEL-2 cells assessed as growth inhibition at 10 uM after 48 hrs by sulforhodamine B assay
[22] = test system: MDA-MB-231; test: Cytotoxicity against human MDA-MB-231 cells assessed as growth inhibition at 10 uM after 48 hrs by sulforhodamine B assay

With `COC(=O)/C=C1\S/C(=N\N=C\c2ccc(OS(=O)(=O)C(F)(F)C(F)(F)C(F)(F)C(F)(F)C(F)(F)C(F)(F)C(F)(F)C(F)(F)F)cc2)N(c2ccccc2)C1=O` as the molecule, how does the inhibition of growth at 10 µM [1] read?
Its inhibition of growth at 10 µM is 12.9%.

And the inhibition of growth at 10 µM [2]?
Its inhibition of growth at 10 µM is 22.1%.

And the inhibition of growth at 10 µM [3]?
The inhibition of growth at 10 µM was 22%.

What about the inhibition of growth at 10 µM [4] of the same molecule?
Its inhibition of growth at 10 µM is 27%.

And the inhibition of growth at 10 µM [5]?
The inhibition of growth at 10 µM was 10.5%.

What about the inhibition of growth at 10 µM [6] of the same molecule?
The inhibition of growth at 10 µM was 20%.

What about the inhibition of growth at 10 µM [7] of the same molecule?
Its inhibition of growth at 10 µM is 39.7%.

What about the inhibition of growth at 10 µM [8] of the same molecule?
Its inhibition of growth at 10 µM is 25.1%.

And the inhibition of growth at 10 µM [9]?
Its inhibition of growth at 10 µM is 13.5%.

What about the inhibition of growth at 10 µM [10] of the same molecule?
Its inhibition of growth at 10 µM is 26.6%.

What about the inhibition of growth at 10 µM [11] of the same molecule?
The inhibition of growth at 10 µM was 34.1%.

And the inhibition of growth at 10 µM [12]?
The inhibition of growth at 10 µM was 12.1%.

What about the inhibition of growth at 10 µM [13] of the same molecule?
The inhibition of growth at 10 µM was 36.2%.

And the inhibition of growth at 10 µM [14]?
Its inhibition of growth at 10 µM is 11.6%.

What about the inhibition of growth at 10 µM [15] of the same molecule?
Its inhibition of growth at 10 µM is 36.3%.

What about the inhibition of growth at 10 µM [16] of the same molecule?
The inhibition of growth at 10 µM was 14.1%.

What about the inhibition of growth at 10 µM [17] of the same molecule?
Its inhibition of growth at 10 µM is 11.2%.

What about the inhibition of growth at 10 µM [18] of the same molecule?
The inhibition of growth at 10 µM was 22.1%.

And the inhibition of growth at 10 µM [19]?
The inhibition of growth at 10 µM was 19.3%.

And the inhibition of growth at 10 µM [20]?
The inhibition of growth at 10 µM was 37.8%.

What about the inhibition of growth at 10 µM [21] of the same molecule?
The inhibition of growth at 10 µM was 16.9%.

And the inhibition of growth at 10 µM [22]?
Its inhibition of growth at 10 µM is 15.2%.
